Reference: the supplement of paper PMC10307832

Tests used:
Assay in all cases: relative viability (nuclei count vs DMSO), 5 days (fraction); higher = more cells survive
BEN = system: BEN
How it was run: (§1)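 Medians of duplicate plates are given as relative viability. That measure is the nuclei count in treated wells divided by the count in vehicle wells. Counts were taken on 4× images of lung cancer cell lines in 1536-well plates, 5 days after pin-tool dosing the day after seeding with one drug alone or a fixed anchor-drug dose plus five library-drug doses (not always all listed) in √10 steps.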

NCI-H2087 = system: NCI-H2087
How it was run: as §1

201T = system: 201T
How it was run: as §1

NCI-H1651 = system: NCI-H1651
How it was run: as §1

NCI-H596 = system: NCI-H596
How it was run: as §1

H3255 = system: H3255
How it was run: as §1

NCI-H1650 = system: NCI-H1650
How it was run: as §1

CAL-12T = system: CAL-12T
How it was run: as §1

NCI-H727 = system: NCI-H727
How it was run: as §1

NCI-H1915 = system: NCI-H1915
How it was run: as §1

NCI-H2023 = system: NCI-H2023
How it was run: as §1

NCI-H441 = system: NCI-H441
How it was run: as §1

NCI-H650 = system: NCI-H650
How it was run: as §1

NCI-H1944 = system: NCI-H1944
How it was run: as §1

NCI-H520 = system: NCI-H520
How it was run: as §1

A-427 = system: A-427
How it was run: as §1

NCI-H661 = system: NCI-H661
How it was run: as §1

PC-3 [JPC-3] = system: PC-3 [JPC-3]
How it was run: as §1

NCI-H460 = system: NCI-H460
How it was run: as §1

LCLC-97TM1 = system: LCLC-97TM1
How it was run: as §1

LC-2-ad = system: LC-2-ad
How it was run: as §1

ABC-1 = system: ABC-1
How it was run: as §1

Question: COc1cc2nccc(Oc3ccc(NC(=O)Nc4cc(C)on4)c(Cl)c3)c2cc1OC [Tivozanib] + CCNC(=O)c1noc(-c2cc(C(C)C)c(O)cc2O)c1-c1ccc(CN2CCOCC2)cc1 [Luminespib] (partner 0.01 µM) was tested. Which relative viability (BEN; first compound 0.005 µM) did it give?
Answer: 0.337

Question: And the relative viability (BEN; first compound 0.01581 µM)?
Answer: 0.305

Question: And the relative viability (BEN; first compound 0.05 µM)?
Answer: 0.508

Question: And the relative viability (BEN; first compound 0.1581 µM)?
Answer: 0.148

Question: What about the relative viability (BEN; first compound 0.5 µM) of the same compound?
Answer: 0.299

Question: And the relative viability (NCI-H2087; first compound 0.005 µM)?
Answer: 0.135

Question: What about the relative viability (NCI-H2087; first compound 0.01581 µM) of the same compound?
Answer: 0.209

Question: And the relative viability (NCI-H2087; first compound 0.05 µM)?
Answer: 0.189

Question: And the relative viability (NCI-H2087; first compound 0.1581 µM)?
Answer: 0.148

Question: What about the relative viability (NCI-H2087; first compound 0.5 µM) of the same compound?
Answer: 0.147

Question: What about the relative viability (201T; first compound 0.005 µM) of the same compound?
Answer: 1.06

Question: And the relative viability (201T; first compound 0.01581 µM)?
Answer: 1.06

Question: And the relative viability (201T; first compound 0.05 µM)?
Answer: 1.03

Question: What about the relative viability (201T; first compound 0.1581 µM) of the same compound?
Answer: 1.06

Question: What about the relative viability (201T; first compound 0.5 µM) of the same compound?
Answer: 1.06

Question: What about the relative viability (NCI-H1651; first compound 0.005 µM) of the same compound?
Answer: 0.86

Question: What about the relative viability (NCI-H1651; first compound 0.01581 µM) of the same compound?
Answer: 0.638

Question: What about the relative viability (NCI-H1651; first compound 0.05 µM) of the same compound?
Answer: 0.842

Question: And the relative viability (NCI-H1651; first compound 0.1581 µM)?
Answer: 0.883

Question: What about the relative viability (NCI-H1651; first compound 0.5 µM) of the same compound?
Answer: 0.931

Question: And the relative viability (NCI-H596; first compound 0.005 µM)?
Answer: 0.771

Question: What about the relative viability (NCI-H596; first compound 0.01581 µM) of the same compound?
Answer: 1.04

Question: What about the relative viability (NCI-H596; first compound 0.05 µM) of the same compound?
Answer: 1.04

Question: What about the relative viability (NCI-H596; first compound 0.5 µM) of the same compound?
Answer: 0.858

Question: What about the relative viability (H3255; first compound 0.005 µM) of the same compound?
Answer: 0.69

Question: And the relative viability (H3255; first compound 0.01581 µM)?
Answer: 0.851

Question: What about the relative viability (H3255; first compound 0.05 µM) of the same compound?
Answer: 0.821

Question: What about the relative viability (H3255; first compound 0.1581 µM) of the same compound?
Answer: 0.704

Question: And the relative viability (H3255; first compound 0.5 µM)?
Answer: 0.681

Question: And the relative viability (NCI-H1650; first compound 0.005 µM)?
Answer: 0.172

Question: What about the relative viability (NCI-H1650; first compound 0.01581 µM) of the same compound?
Answer: 0.209

Question: What about the relative viability (NCI-H1650; first compound 0.05 µM) of the same compound?
Answer: 0.213

Question: And the relative viability (NCI-H1650; first compound 0.1581 µM)?
Answer: 0.178

Question: And the relative viability (NCI-H1650; first compound 0.5 µM)?
Answer: 0.203

Question: And the relative viability (CAL-12T; first compound 0.005 µM)?
Answer: 0.253

Question: And the relative viability (CAL-12T; first compound 0.01581 µM)?
Answer: 0.36

Question: What about the relative viability (CAL-12T; first compound 0.05 µM) of the same compound?
Answer: 0.573

Question: What about the relative viability (CAL-12T; first compound 0.1581 µM) of the same compound?
Answer: 0.276

Question: What about the relative viability (CAL-12T; first compound 0.5 µM) of the same compound?
Answer: 0.594

Question: And the relative viability (NCI-H727; first compound 0.005 µM)?
Answer: 0.349

Question: What about the relative viability (NCI-H727; first compound 0.01581 µM) of the same compound?
Answer: 0.59

Question: And the relative viability (NCI-H727; first compound 0.05 µM)?
Answer: 0.468

Question: And the relative viability (NCI-H727; first compound 0.1581 µM)?
Answer: 0.528

Question: And the relative viability (NCI-H727; first compound 0.5 µM)?
Answer: 0.609

Question: And the relative viability (NCI-H1915; first compound 0.005 µM)?
Answer: 0.719

Question: And the relative viability (NCI-H1915; first compound 0.01581 µM)?
Answer: 0.855

Question: What about the relative viability (NCI-H1915; first compound 0.05 µM) of the same compound?
Answer: 0.848

Question: And the relative viability (NCI-H1915; first compound 0.1581 µM)?
Answer: 0.799

Question: And the relative viability (NCI-H1915; first compound 0.5 µM)?
Answer: 0.8

Question: And the relative viability (NCI-H2023; first compound 0.005 µM)?
Answer: 0.664

Question: And the relative viability (NCI-H2023; first compound 0.01581 µM)?
Answer: 0.698

Question: What about the relative viability (NCI-H2023; first compound 0.05 µM) of the same compound?
Answer: 0.681

Question: And the relative viability (NCI-H2023; first compound 0.1581 µM)?
Answer: 0.748

Question: And the relative viability (NCI-H2023; first compound 0.5 µM)?
Answer: 0.763

Question: And the relative viability (NCI-H441; first compound 0.005 µM)?
Answer: 0.367

Question: What about the relative viability (NCI-H441; first compound 0.01581 µM) of the same compound?
Answer: 0.446

Question: What about the relative viability (NCI-H441; first compound 0.05 µM) of the same compound?
Answer: 0.308

Question: And the relative viability (NCI-H441; first compound 0.1581 µM)?
Answer: 0.322

Question: And the relative viability (NCI-H441; first compound 0.5 µM)?
Answer: 0.399

Question: And the relative viability (NCI-H650; first compound 0.005 µM)?
Answer: 0.807

Question: And the relative viability (NCI-H650; first compound 0.01581 µM)?
Answer: 0.784

Question: And the relative viability (NCI-H650; first compound 0.05 µM)?
Answer: 0.795

Question: And the relative viability (NCI-H650; first compound 0.1581 µM)?
Answer: 0.692

Question: And the relative viability (NCI-H650; first compound 0.5 µM)?
Answer: 0.708

Question: What about the relative viability (NCI-H1944; first compound 0.005 µM) of the same compound?
Answer: 0.691

Question: What about the relative viability (NCI-H1944; first compound 0.01581 µM) of the same compound?
Answer: 0.83

Question: And the relative viability (NCI-H1944; first compound 0.05 µM)?
Answer: 0.732

Question: What about the relative viability (NCI-H1944; first compound 0.1581 µM) of the same compound?
Answer: 0.625

Question: What about the relative viability (NCI-H1944; first compound 0.5 µM) of the same compound?
Answer: 0.818

Question: And the relative viability (NCI-H520; first compound 0.005 µM)?
Answer: 0.287

Question: And the relative viability (NCI-H520; first compound 0.01581 µM)?
Answer: 0.219

Question: What about the relative viability (NCI-H520; first compound 0.05 µM) of the same compound?
Answer: 0.222

Question: And the relative viability (NCI-H520; first compound 0.1581 µM)?
Answer: 0.328

Question: And the relative viability (NCI-H520; first compound 0.5 µM)?
Answer: 0.245

Question: And the relative viability (A-427; first compound 0.005 µM)?
Answer: 1.09

Question: And the relative viability (A-427; first compound 0.01581 µM)?
Answer: 0.902

Question: What about the relative viability (A-427; first compound 0.05 µM) of the same compound?
Answer: 1.02

Question: What about the relative viability (A-427; first compound 0.1581 µM) of the same compound?
Answer: 0.836

Question: And the relative viability (A-427; first compound 0.5 µM)?
Answer: 1.01

Question: What about the relative viability (NCI-H661; first compound 0.005 µM) of the same compound?
Answer: 0.958

Question: What about the relative viability (NCI-H661; first compound 0.01581 µM) of the same compound?
Answer: 0.956

Question: And the relative viability (NCI-H661; first compound 0.05 µM)?
Answer: 0.982

Question: What about the relative viability (NCI-H661; first compound 0.1581 µM) of the same compound?
Answer: 0.998

Question: What about the relative viability (NCI-H661; first compound 0.5 µM) of the same compound?
Answer: 0.953

Question: And the relative viability (PC-3 [JPC-3]; first compound 0.005 µM)?
Answer: 0.744

Question: What about the relative viability (PC-3 [JPC-3]; first compound 0.01581 µM) of the same compound?
Answer: 0.636

Question: What about the relative viability (PC-3 [JPC-3]; first compound 0.05 µM) of the same compound?
Answer: 0.751

Question: And the relative viability (PC-3 [JPC-3]; first compound 0.1581 µM)?
Answer: 0.716

Question: And the relative viability (PC-3 [JPC-3]; first compound 0.5 µM)?
Answer: 0.766

Question: And the relative viability (NCI-H460; first compound 0.005 µM)?
Answer: 0.0252

Question: What about the relative viability (NCI-H460; first compound 0.01581 µM) of the same compound?
Answer: 0.0365

Question: What about the relative viability (NCI-H460; first compound 0.05 µM) of the same compound?
Answer: 0.0375

Question: What about the relative viability (NCI-H460; first compound 0.1581 µM) of the same compound?
Answer: 0.0404

Question: And the relative viability (NCI-H460; first compound 0.5 µM)?
Answer: 0.0362

Question: And the relative viability (LCLC-97TM1; first compound 0.005 µM)?
Answer: 0.845

Question: And the relative viability (LCLC-97TM1; first compound 0.01581 µM)?
Answer: 0.849

Question: What about the relative viability (LCLC-97TM1; first compound 0.05 µM) of the same compound?
Answer: 0.716

Question: What about the relative viability (LCLC-97TM1; first compound 0.1581 µM) of the same compound?
Answer: 0.898

Question: What about the relative viability (LCLC-97TM1; first compound 0.5 µM) of the same compound?
Answer: 0.738

Question: What about the relative viability (LC-2-ad; first compound 0.005 µM) of the same compound?
Answer: 1.03

Question: What about the relative viability (LC-2-ad; first compound 0.01581 µM) of the same compound?
Answer: 1.19

Question: What about the relative viability (LC-2-ad; first compound 0.05 µM) of the same compound?
Answer: 0.993

Question: And the relative viability (LC-2-ad; first compound 0.1581 µM)?
Answer: 0.945

Question: What about the relative viability (LC-2-ad; first compound 0.5 µM) of the same compound?
Answer: 0.879

Question: What about the relative viability (ABC-1; first compound 0.005 µM) of the same compound?
Answer: 0.692

Question: And the relative viability (ABC-1; first compound 0.05 µM)?
Answer: 0.429

Question: And the relative viability (ABC-1; first compound 0.1581 µM)?
Answer: 0.389

Question: What about the relative viability (ABC-1; first compound 0.5 µM) of the same compound?
Answer: 0.215
